# From ChEMBL document CHEMBL6134904, “Discovery of Potent PDEδ/NAMPT Dual Inhibitors: Preclinical Evaluation in KRAS Mutant Pancreatic Cancer Cells” (J Med Chem, 2025)
# Experiments:
# MIA PaCa-2 [1] = assay: Synergistic antiproliferative activity against human MIA PaCa-2 cells harboring KRAS G12C mutant assessed as inhibition of cell growth by measuring combination index at 1:2 molar ratio of test compound:1-(4-(piperidin-1-ylsulfonyl)phenyl)-3-(pyridin-3-ylmethyl)thiourea by chou-talalay method; assay type: functional
# MIA PaCa-2 [2] = assay: Antiproliferative activity against human MIA PaCa-2 cells assessed as inhibition of cell growth incubated for 72 hrs in presence of 1-(4-(piperidin-1-ylsulfonyl)phenyl)-3-(pyridin-3-ylmethyl)thiourea by CCK8 assay; assay type: functional, cell-based; details: MIA PaCa-2, 72 h
# HCT-116 [3] = assay: Antiproliferative activity against human HCT-116 cells assessed as inhibition of cell growth incubated for 72 hrs in presence of 1-(4-(piperidin-1-ylsulfonyl)phenyl)-3-(pyridin-3-ylmethyl)thiourea by CCK8 assay; assay type: functional, cell-based; details: HCT-116, 72 h
# A549 [4] = assay: Antiproliferative activity against human A549 cells assessed as inhibition of cell growth incubated for 72 hrs in presence of 1-(4-(piperidin-1-ylsulfonyl)phenyl)-3-(pyridin-3-ylmethyl)thiourea by CCK8 assay; assay type: functional, cell-based; details: A549, 72 h
# MIA PaCa-2 [5] = assay: Antitumor activity against human MIA PaCa-2 cells xenografted in female BALB/C nude mouse assessed as tumor growth inhibition at 20 mg/kg, ip administered once daily for 21 days relative to control; details: MIA PaCa-2, 504 h, read-out: TGI
# MIA PaCa-2 [6] = assay: Antitumor activity against human MIA PaCa-2 cells xenografted in female BALB/C nude mouse assessed as tumor growth inhibition at 20 mg/kg, ip co-administered with 1-(4-(piperidin-1-ylsulfonyl)phenyl)-3-(pyridin-3-ylmethyl)thiourea once daily for 21 days relative to control; assay type: functional; details: MIA PaCa-2, 504 h, time 21 day, read-out: TGI
# [7] = target: Retinal rod rhodopsin-sensitive cGMP 3',5'-cyclic phosphodiesterase subunit delta (Homo sapiens, UniProt O43924)
# MIA PaCa-2 [8] = assay: cells; details: Homo sapiens, MIA PaCa-2, 72 h
# Description: Antiproliferative activity against human MIA PaCa-2 cells assessed as inhibition of cell growth incubated for 72 hrs by CCK8 assay
# HCT-116 [9] = assay: cells; details: Homo sapiens, HCT-116, 72 h
# Description: Antiproliferative activity against human HCT-116 cells assessed as inhibition of cell growth incubated for 72 hrs by CCK8 assay
# A549 [10] = assay: cells; details: Homo sapiens, A549, 72 h
# Description: Antiproliferative activity against human A549 cells assessed as inhibition of cell growth incubated for 72 hrs by CCK8 assay
# [11] = target: Nicotinamide phosphoribosyltransferase (Homo sapiens, UniProt P43490)
# Nicotinamide phosphoribosyltransferase, sequence (P43490 whole entry): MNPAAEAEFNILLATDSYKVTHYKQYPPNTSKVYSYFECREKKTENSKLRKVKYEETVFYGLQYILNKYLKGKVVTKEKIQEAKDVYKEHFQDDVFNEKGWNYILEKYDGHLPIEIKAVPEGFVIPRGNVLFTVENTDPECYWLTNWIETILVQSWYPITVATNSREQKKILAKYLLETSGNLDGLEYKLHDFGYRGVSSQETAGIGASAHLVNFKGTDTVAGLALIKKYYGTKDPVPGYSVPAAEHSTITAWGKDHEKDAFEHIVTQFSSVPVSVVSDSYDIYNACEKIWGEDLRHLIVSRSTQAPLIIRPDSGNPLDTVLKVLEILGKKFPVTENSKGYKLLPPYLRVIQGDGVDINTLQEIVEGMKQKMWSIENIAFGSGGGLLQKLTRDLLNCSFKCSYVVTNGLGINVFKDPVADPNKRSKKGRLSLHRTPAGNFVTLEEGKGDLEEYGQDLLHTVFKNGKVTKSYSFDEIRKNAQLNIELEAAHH
# Description: Inhibition of NAMPT (unknown origin) using NAM as substrate preincubated for 5 mins followed by substrate addition and measured after 15 mins by fluorescence based microtiter plate reader analysis
# Retinal rod rhodopsin-sensitive cGMP 3',5'-cyclic phosphodiesterase subunit delta, sequence (O43924 whole entry): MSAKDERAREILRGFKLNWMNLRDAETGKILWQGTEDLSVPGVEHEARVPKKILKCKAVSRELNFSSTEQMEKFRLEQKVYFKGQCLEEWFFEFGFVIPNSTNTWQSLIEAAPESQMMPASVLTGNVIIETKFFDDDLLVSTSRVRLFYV
IC50 (MIA PaCa-2 [2]) [µM],IC50 (HCT-116 [3]) [µM],IC50 (A549 [4]) [µM],Kd [7] [µM],IC50 (MIA PaCa-2 [8]) [µM],IC50 (HCT-116 [9]) [µM],IC50 (A549 [10]) [µM],IC50 [11] [µM],Compound,CI (MIA PaCa-2 [1]),inhibition in vivo at 20 mg/kg (MIA PaCa-2 [5]) [%],inhibition in vivo at 20 mg/kg (MIA PaCa-2 [6]) [%]
0.13,0.233,0.039,0.00516,> 20,6.87,> 20,,Cc1ccc(-n2nc3c(=O)n(CCC(=O)N4CCC(N5C(=O)c6ccccc6NC5c5ccccc5F)CC4)nc(C)c3c2C)cc1 (centres undefined),<1,26.8,44.1
,,,,0.036,0.711,0.014,0.266,O=C(/C=C/c1cccnc1)Nc1ccc(S(=O)(=O)N(Cc2ccc(Cl)cc2)C2CCCC2)cc1,,,
